Data from US20260256751A1, “COMBINATION OF BETA-2-ADRENERGIC RECEPTOR AGONISTS AND GLP-1 RECEPTOR AGONISTS FOR USE IN TREATING HYPERGLYCAEMIA” (ATROGI AB, priority 2023, published 2026).

Assays:
[1] = system: differentiated L6-myotubes; test: cAMP production relative to isoprenaline (Biological example 2 of WO 2019/053427); type: cell-based; details: 0.25 h, compound at 10 μM, activity relative to isoproterenol at 10 μM
Outline: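 Differentiated L6 myotubes stimulated 15 min with test compound or isoprenaline, each at final 1×10^−5 M, in HBSS with 1% BSA, 5 mM HEPES, 1 mM IBMX, pH 7.4. cAMP production by the compound expressed relative to that induced by the same concentration of isoprenaline.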

[2] = system: differentiated L6-myotubes; test: Glucose uptake screen (Biological example 1 of WO 2019/053427); type: cell-based; details: compound at 10 μM, activity relative to isoproterenol at 10 μM, read-out: Biological example 1 of WO 2019/053427 (GU)
Outline: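 Rat L6 myoblasts were differentiated into myotubes over 7 days in 2% FBS, then serum-starved overnight. Cells were stimulated with 1×10^−5 M compound plus β2 antagonist ICI-118551 for 1 h 40 min and re-dosed for 20 min in glucose-free medium. Uptake of 50 nM ^3H-2-deoxyglucose over 10 min was counted after NaOH lysis.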

| Structure (SMILES) | Emax at 10 µM [1] | Emax at 10 µM [2] |
| --- | --- | --- |
| CO[C@H]1CC[C@H](CCC23CCC([C@@H](O)c4cccc(F)c4)(CC2)N3)CC1 [Compound 410, (S)-(m-fluorophenyl)(4-{2-[(1r,4R)-4-methoxycyclohexyl]ethyl}-7-azabicyclo[2.2.1]hept-1-yl)methanol] | < 25% | 50 to 75% |
| CO[C@H]1CC[C@H](CCC23CCC([C@H](O)c4cccc(F)c4)(CC2)N3)CC1 [Compound 411, (R)-(m-fluorophenyl)(4-{2-[(1r,4S)-4-methoxycyclohexyl]ethyl}-7-azabicyclo[2.2.1]hept-1-yl)methanol] | 50 to 75% | > 75% |
| O[C@@H](c1cccc(F)c1)C12CCC(Cc3ccc(F)cc3)(CC1)N2 [Compound 412, (S)-(m-fluorophenyl){4-[(p-fluorophenyl)methyl]-7-azabicyclo[2.2.1]hept-1-yl}methanol] | < 25% | 50 to 75% |
| O[C@H](c1cccc(F)c1)C12CCC(Cc3ccc(F)cc3)(CC1)N2 [Compound 413, (R)-(m-florophenyl){4-[(p-fluorophenyl)methyl]-7-azabicyclo[2.2.1]hept-1-yl}methanol] | < 25% | > 75% |
| CC(C)(C[C@H]1CC[C@@H](NC(=O)OC(C)(C)C)CC1)NC[C@H](O)c1cccc(C#N)n1 [Compound 414] | < 25% | 50 to 75% |
| CC(C)(C[C@H]1CC[C@H](N)CC1)NC[C@@H](O)c1cccc(C#N)n1 [Compound 415, 6-[(R)-2-{1,1-dimethyl-2-[(1r,4R)-4-aminocyclohexyl]ethylamino}-1-hydroxyethyl]-2-pyridinecarbonitrile] | < 25% | 50 to 75% |
| CC(C)(C[C@H]1CC[C@@H](N)CC1)NC[C@@H](O)c1cccc(C#N)n1 [Compound 416, 6-[(R)-2-{1,1-dimethyl-2-[(1s,4S)-4-aminocyclohexyl]ethylamino}-1-hydroxyethyl]-2-pyridinecarbonitrile] | < 25% | 50 to 75% |
| CC(C)(C[C@H]1CC[C@H](N)CC1)NC[C@H](O)c1cccc(C#N)n1 [Compound 417, 6-[(S)-2-{1,1-dimethyl-2-[(1r,4S)-4-aminocyclohexyl]ethylamino}-1-hydroxyethyl]-2-pyridinecarbontirile] | 25 to 50% | > 75% |
| CC(C)(C[C@H]1CC[C@@H](N)CC1)NC[C@H](O)c1cccc(C#N)n1 [Compound 418, 6-[(S)-2-{1,1-dimethyl-2-[(1s,4R)-4-aminocyclohexyl]ethylamino}-1-hydroxyethyl]-2-pyridinecarbonitrile] | < 25% | 50 to 75% |
| CC(C)(NC[C@H](O)c1cncc(F)c1)[C@H]1CC[C@H](OCC(=O)O)CC1 [Compound 419, [(1R,4r)-4-{1-[(R)-2-(5-fluoro-3-pyridyl)-2-hydroxyethylamino]-1-methylethyl}cyclohexyloxy]aetic acid] | < 25% | 50 to 75% |
| CC(C)(C[C@H]1CC[C@H](NC(=O)OC(C)(C)C)CC1)NC[C@H](O)c1cccc(F)c1 [Compound 420] | 25 to 50% | 50 to 75% |
| CC(=O)N[C@H]1CC[C@@H](CC(C)(C)NC[C@H](O)c2cccc(C#N)n2)CC1 [Compound 421, N-[(1R,4s)-4-{2-[(S)-2-(6-cyano-2-pyridyl)-2-hydroxyethylamino]-2-methylpropyl}cyclohexyl]acetamide] | < 25% | > 75% |
| CC(C)(C[C@H]1CC[C@@H](NS(C)(=O)=O)CC1)NC[C@H](O)c1cccc(C#N)n1 [Compound 422, 6-[(S)-2-{1,1-dimethyl-2-[(1s,4R)-4-(mesylamino)cylcohexyl]ethylamino}-1-hydroxyethyl]-2-pyridinecarbonitrile] | < 25% | 50 to 75% |
| CC(=O)N[C@H]1CC[C@@H](CC(C)(C)NC[C@@H](O)c2cccc(C#N)n2)CC1 [Compound 423, N-[(1S,4s)-4-{2-[(R)-2-(6-cyano-2-pyridyl)-2-hydroxyethylamino]-2-methylpropyl}cyclohexyl]acetamide] | < 25% | < 25% |
| CC(C)(C[C@H]1CC[C@@H](NS(C)(=O)=O)CC1)NC[C@@H](O)c1cccc(C#N)n1 [Compound 424, 6-[(R)-2-{1,1-dimethyl-2-[(1s,4S)-4-(mesylamino)cyclohexyl]ethylamino}-1-hydroxyethyl]-2-pyridinecarbonitrile] | < 25% | 25 to 50% |
| CC(=O)N[C@H]1CC[C@H](CC(C)(C)NC[C@H](O)c2cccc(C#N)n2)CC1 [Compound 425, N-[(1S,4r)-4-{2-[(S)-2-(6-cyano-2-pyridyl)-2-hydroxyethylamino]-2-methylpropyl}cyclohexyl]acetamide] | 25 to 50% | > 75% |

| Structure (SMILES) | Emax at 10 µM [1] | Emax at 10 µM [2] |
| --- | --- | --- |
| CC(C)(C[C@H]1CC[C@H](NS(C)(=O)=O)CC1)NC[C@H](O)c1cccc(C#N)n1 [Compound 426, 6-[(S)-2-{1,1-dimethyl-2-[(1r,4S)-4-(mesylamino)cyclohexyl]ethylamino}-1-hydroxyethyl]-2-pyridinecarbonitrile] | < 25% | > 75% |
| CC(=O)N[C@H]1CC[C@H](CC(C)(C)NC[C@@H](O)c2cccc(C#N)n2)CC1 [Compound 427, N-[(1R,4r)-4-{2-[(R)-2-(6-cyano-2-pyridyl)-2-hydroxyethylamino]-2-methylpropyl}cyclohexyl]acetamide] | < 25% | < 25% |
| CC(C)(C[C@H]1CC[C@H](NS(C)(=O)=O)CC1)NC[C@@H](O)c1cccc(C#N)n1 [Compound 428, 6-[(R)-2-{1,1-dimethyl-2-[(1r,4R)-4-(mesylamino)cyclohexyl]ethylamino}-1-hydroxyethyl]-2-pyridinecarobnitrile] | < 25% | < 25% |
| CC(C)(C[C@H]1CC[C@H](NC(=O)C(C)(C)C)CC1)NC[C@H](O)c1cccc(F)c1 [Compound 429, N-[(1R,4r)-4-{2-[(R)-2-(m-fluorophenyl)-2-hdyroxyethylamino]-2-methylpropyl}cyclohexyl]2,2-dimethylpropionamide] | 25 to 50% | > 75% |
| CN(C)C(=O)N[C@H]1CC[C@H](CC(C)(C)NC[C@H](O)c2cccc(F)c2)CC1 [Compound 430, (R)-2-{1,1-dimethyl-2-[(1r,4R)-4-(3,3-dimethylureido)cyclohexyl]ethylamino}-1-(m-fluorophenyl)-1-ethanol] | 50 to 75% | > 75% |
| CC(C)(C[C@H]1CC[C@H](NC(=O)C2CCC2)CC1)NC[C@H](O)c1cccc(F)c1 [Compound 431, N-[(1R,4r)-4-{2-[(R)-2-(m-fluorophenyl)-2-hydroxyethylamino]-2-methylpropyl}cyclohexyl]cyclobutanecarboxamide] | 50 to 75% | > 75% |
| CC(C)(C[C@H]1CC[C@H](NC(=O)C2CC2)CC1)NC[C@H](O)c1cccc(F)c1 [Compound 432, N-[(1R,4r)-4-{2-[(R)-2-(m-fluorophenyl)-2-hydroxyethylamino]-2-methylpropyl}cyclohexyl]cyclopropanecarboxmaide] | > 75% | > 75% |
| CC(C)(C[C@H]1CC[C@H](NC(=O)C(F)(F)F)CC1)NC[C@H](O)c1cccc(F)c1 [Compound 433, N-[(1R,4r)-4-{2-[(R)-2-(m-fluorophenyl)-2-hydroxyethylamino]-2-methylpropyl}cyclohexyl]trifluoroacetamide] | 25 to 50% | > 75% |
| CC(=O)N[C@H]1CC[C@H](CC(C)(C)NC[C@H](O)c2cccnc2C)CC1 [Compound 434, N-[(1R,4r)-4-{2-[(R)-2-hydroxy-2-(2-methyl-3-pyridyl)ethylamino]-2-methylpropyl}cyclohexyl]acetamide] | < 25% | > 75% |
| Cc1ncccc1[C@@H](O)CNC(C)(C)C[C@H]1CC[C@H](NS(C)(=O)=O)CC1 [Compound 435, (R)-2-{1,1-dimethyl-2-[(1r,4R)-4-(mesylamino)cyclohexyl]ethylamino}-1-(2-methyl-3-pyridyl)-1-ethanol] | < 25% | 25 to 50% |
| CC(=O)N[C@H]1CC[C@@H](CC(C)(C)NC[C@H](O)c2cccnc2C)CC1 [Compound 436, N-[(1S,4s)-4-{2-[(R)-2-hydroxy-2-(2-methyl-3-pyridyl)ethylamino]-2-methylpropyl}cyclohexyl]acetamide] | < 25% | 50 to 75% |
| Cc1ncccc1[C@@H](O)CNC(C)(C)C[C@H]1CC[C@@H](NS(C)(=O)=O)CC1 [Compound 437, (R)-2-{1,1-dimethyl-2-[(1s,4S)-4-(mesylamino)cyclohexyl]ethylamino}-1-(2-methyl-3-pyridyl)-1-ethanol] | < 25% | 25 to 50% |
| O[C@@H](c1cccc(F)c1)C12CCC(COCc3ccc(F)cc3)(CC1)N2 [Compound 438, (S)-(m-fluorophenyl)(4-{[(p-fluorophenyl)methoxy]methyl}-7-azabicyclo[2.2.1]hept-1-yl)methanol] | < 25% | < 25% |
| O[C@H](c1cccc(F)c1)C12CCC(COCc3ccc(F)cc3)(CC1)N2 [Compound 439, (R)-(m-fluorophenyl)(4-{[(p-fluorophenyl)methoxy]methyl}-7-azabicyclo[2.2.1]hept-1-yl)methanol] | 25 to 50% | > 75% |
| O[C@@H](c1cccc(F)c1)C12CCC(COc3ccc(Cl)cc3)(CC1)N2 [Compound 440, (S)-{4-[(p-chlorophenoxy)methyl]-7-azabicyclo[2.2.1]hept-1-yl}(m-fluorophenyl)methanol] | < 25% | > 75% |
